The structures appear in SMILES notation.

Among the data in US20240199587A1, “HETEROCYCLIC COMPOUNDS” (Hoffmann-La Roche Inc., priority 2021, published 2024) are IC50 values, retold here.

For this assay, the target named is T1, MAGL (Homo sapiens, UniProt Q99685).
T1 sequence (Q99685 1-303): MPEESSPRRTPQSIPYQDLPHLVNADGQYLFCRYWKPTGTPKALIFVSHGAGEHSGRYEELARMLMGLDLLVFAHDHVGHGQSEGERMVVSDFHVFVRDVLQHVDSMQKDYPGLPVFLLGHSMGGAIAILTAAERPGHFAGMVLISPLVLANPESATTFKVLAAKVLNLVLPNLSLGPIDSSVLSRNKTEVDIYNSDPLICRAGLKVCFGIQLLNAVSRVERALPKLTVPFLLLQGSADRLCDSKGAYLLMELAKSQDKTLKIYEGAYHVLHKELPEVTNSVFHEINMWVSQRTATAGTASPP
Description: 2-AG assay (MAGL inhibitory activity, hydrolysis of 2-arachidonoylglycerol to arachidonic acid followed by mass spectrometry). The class given is biochemical. The note with it: 8 μM 2-arachidonoylglycerol, 15 min pre-incubation, 30 min incubation at RT, RapidFire MS readout. In a few lines:
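Arachidonic acid released from 8 μM 2-arachidonoylglycerol was quantified by online SPE triple-quadrupole MS (negative ESI, 303.1→259.1), normalised to d8-arachidonic acid internal standard. Reaction ran 30 min at RT after 15 min RT compound pre-incubation with […] MAGL in TRIS/EDTA/Tween-20 buffer, 2.5% DMSO.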
On to `O=C(N1CC2(CCC(Cc3ccc(F)cn3)CC2)C1)N1CC2(CC(c3ccc(C(F)(F)F)nc3)C2)C1` [Example 516, [7-[(5-fluoro-2-pyridyl)methyl]-2-azaspiro[3.5]nonan-2-yl]-[6-[6-(trifluoromethyl)-3-pyridyl]-2-azaspiro[3.3]heptan-2-yl]methanone], for which the 50% inhibitory concentration (IC50) (as a rule, the concentration that inhibits the measured activity by half) was determined as 699 nM. This lies in the sub-micromolar range.

Molecule `O=C(N1CC2(CCC(Cc3ccc(Cl)cn3)CC2)C1)N1CC2(CC(c3ccc(C(F)(F)F)nc3)C2)C1` [Example 517, [7-[(5-chloro-2-pyridyl)methyl]-2-azaspiro[3.5]nonan-2-yl]-[6-[6-(trifluoromethyl)-3-pyridyl]-2-azaspiro[3.3]heptan-2-yl]methanone] yielded an IC50 of 299 nM. The molecule `COc1cc(C(F)(F)F)ccc1CNC1CN(C(=O)N2CC3(CC(c4ccc(C(F)(F)F)nc4)C3)C2)C1` [Example 518, [3-[[2-methoxy-4-(trifluoromethyl)phenyl]methylamino]azetidin-1-yl]-[6-[6-(trifluoromethyl)-3-pyridyl]-2-azaspiro[3.3]heptan-2-yl]methanone] displayed an IC50 of 610 nM. As for `O=C(N1CC2(CC(Cc3cnc(C(F)(F)F)cn3)C2)C1)N1CC2(CC(c3ccc(C(F)(F)F)nc3)C2)C1` [Example 519, [6-[[5-(trifluoromethyl)pyrazin-2-yl]methyl]-2-azaspiro[3.3]heptan-2-yl]-[6-[6-(trifluoromethyl)-3-pyridyl]-2-azaspiro[3.3]heptan-2-yl]methanone], the figure is 154 nM. Turning to `O=C(N1CC(OCc2ccc(S(=O)(=O)C(F)(F)F)cc2)C1)N1CC2(CC(c3ccc(C(F)(F)F)nc3)C2)C1` [Example 520, [6-[6-(trifluoromethyl)-3-pyridyl]-2-azaspiro[3.3]heptan-2-yl]-[3-[[4-(trifluoromethylsulfonyl)phenyl]methoxy]azetidin-1-yl]methanone], it took 544 nM to reach half-maximal inhibition (IC50). Molecule `O=C(N1CC2(CCC(Cc3ccc(OC(F)F)nc3)CC2)C1)N1CC2(CC(c3ccc(C(F)(F)F)nc3)C2)C1` [Example 521, [7-[[6-(difluoromethoxy)-3-pyridyl]methyl]-2-azaspiro[3.5]nonan-2-yl]-[6-[6-(trifluoromethyl)-3-pyridyl]-2-azaspiro[3.3]heptan-2-yl]methanone] displayed an IC50 of 379 nM. In turn, `O=C(N1CC2(CC(c3ccc(C(F)(F)F)nc3)C2)C1)N1CC2(CC(c3ccc(C(F)(F)F)nc3)C2)C1` [Example 522, bis[6-[6-(trifluoromethyl)-3-pyridyl]-2-azaspiro[3.3]heptan-2-yl]methanone] gave an IC50 of 849 nM. For `O=C(N1CC(c2ccc(N3CC(C(F)(F)F)C3)nc2)C1)N1CC2(CC(c3ccc(C(F)(F)F)nc3)C2)C1` [Example 523, [3-[6-[3-(trifluoromethyl)azetidin-1-yl]-3-pyridyl]azetidin-1-yl]-[6-[6-(trifluoromethyl)-3-pyridyl]-2-azaspiro[3.3]heptan-2-yl]methanone], half-maximal inhibition (IC50) required 393 nM. Consider `O=C(N1CC2(CC(Cc3ccc(C(F)(F)F)nc3)C2)C1)N1CC2(CC(c3ccc(C(F)(F)F)nc3)C2)C1` [Example 524, [6-[6-(trifluoromethyl)-3-pyridyl]-2-azaspiro[3.3]heptan-2-yl]-[6-[[6-(trifluoromethyl)-3-pyridyl]methyl]-2-azaspiro[3.3]heptan-2-yl]methanone], for which half-maximal inhibition (IC50) was put at 74.3 nM.

In turn, `O=C(N1CC2(CC(Oc3ccc(C(F)(F)F)nc3)C2)C1)N1CC2(CC(c3ccc(C(F)(F)F)nc3)C2)C1` [Example 525, [6-[6-(trifluoromethyl)-3-pyridyl]-2-azaspiro[3.3]heptan-2-yl]-[6-[[6-(trifluoromethyl)-3-pyridyl]oxy]-2-azaspiro[3.3]heptan-2-yl]methanone] registered an IC50 of 698 nM. This IC50 lies about 9.4-fold higher than the previous one. With `O=C(N1CC2(CC(c3ccc(C(F)(F)F)nc3)C2)C1)N1CC2(CN(Cc3ccc(S(=O)(=O)C(F)(F)F)cc3)C2)C1` [Example 526, [6-[6-(trifluoromethyl)-3-pyridyl]-2-azaspiro[3.3]heptan-2-yl]-[6-[[4-(trifluoromethylsulfonyl)phenyl]methyl]-2,6-diazaspiro[3.3]heptan-2-yl]methanone], 354 nM corresponded to half-maximal inhibition (IC50). Against the preceding molecule, the IC50 is about 2-fold lower. On to `O=C(N1CC(c2ccc(NCC3(C(F)(F)F)CC3)nc2)C1)N1CC2(CC(c3ccc(C(F)(F)F)nc3)C2)C1` [Example 527], for which half-maximal inhibition (IC50) required 50.9 nM.

`O=C(N1CC(Oc2ccc(C(F)(F)F)c(C3CC3)c2)C1)N1CC2(CC(c3ccc(C(F)(F)F)nc3)C2)C1` [Example 528] returned an IC50 of 245 nM.

For `CS(=O)(=O)c1cccc(CC2CC3(C2)CN(C(=O)N2CC4(CC(c5ccc(C(F)(F)F)nc5)C4)C2)C3)c1` [Example 529, [6-[(3-methylsulfonylphenyl)methyl]-2-azaspiro[3.3]heptan-2-yl]-[6-[6-(trifluoromethyl)-3-pyridyl]-2-azaspiro[3.3]heptan-2-yl]methanone], half-maximal inhibition (IC50) was put at 189 nM. Regarding `CS(=O)(=O)c1ccc(CC2CC3(C2)CN(C(=O)N2CC4(CC(c5ccc(C(F)(F)F)nc5)C4)C2)C3)cc1` [Example 530, [6-[(4-methylsulfonylphenyl)methyl]-2-azaspiro[3.3]heptan-2-yl]-[6-[6-(trifluoromethyl)-3-pyridyl]-2-azaspiro[3.3]heptan-2-yl]methanone], the IC50 was 350 nM. Against the preceding molecule, the IC50 is about 1.9-fold higher. Under `O=C(N1CC(NCc2ccc(C(F)(F)F)cc2Cl)C1)N1CC2(CC(c3ccc(C(F)(F)F)nc3)C2)C1` [Example 531] stands 1300 nM. The molecule `CS(=O)(=O)c1ccc(CC2CC3(C2)CN(C(=O)N2CC4(CC(c5ccc(C(F)(F)F)nc5)C4)C2)C3)cc1C(F)(F)F` [Example 532, [6-[[4-methylsulfonyl-3-(trifluoromethyl)phenyl]methyl]-2-azaspiro[3.3]heptan-2-yl]-[6-[6-(trifluoromethyl)-3-pyridyl]-2-azaspiro[3.3]heptan-2-yl]methanone] displayed an IC50 of 131 nM. `O=C(N1CC(OCc2ccc(F)cc2Cl)C1)N1CC2(CC(c3ccc(C(F)(F)F)nc3)C2)C1` [Example 533, [3-[(2-chloro-4-fluoro-phenyl)methoxy]azetidin-1-yl]-[6-[6-(trifluoromethyl)-3-pyridyl]-2-azaspiro[3.3]heptan-2-yl]methanone] returned a 50% inhibitory concentration (IC50) of 813 nM.

In the case of `CC(C)c1ccc(N(C)c2ccc(C3CN(C(=O)N4CC5(CC(c6ccc(C(F)(F)F)nc6)C5)C4)C3)cn2)cc1` [Example 534, [3-[6-(4-isopropyl-N-methyl-anilino)-3-pyridyl]azetidin-1-yl]-[6-[6-(trifluoromethyl)-3-pyridyl]-2-azaspiro[3.3]heptan-2-yl]methanone], the IC50 worked out at 1760 nM. As for `O=C(N1CC2(CCC(Cc3ccc(C(F)(F)F)nc3)C2)C1)N1CC2(CC(c3ccc(C(F)(F)F)nc3)C2)C1` (stereo not drawn) [Example 535, [6-[6-(trifluoromethyl)-3-pyridyl]-2-azaspiro[3.3]heptan-2-yl]-[6-[[6-(trifluoromethyl)-3-pyridyl]methyl]-2-azaspiro[3.4]octan-2-yl]methanone], the figure is 170 nM; as for `N#Cc1cc(CC2CC3(C2)CN(C(=O)N2CC4(CC(c5ccc(C(F)(F)F)nc5)C4)C2)C3)ccc1C(F)(F)F` [Example 536, 2-(trifluoromethyl)-5-[[2-[6-[6-(trifluoromethyl)-3-pyridyl]-2-azaspiro[3.3]heptane-2-carbonyl]-2-azaspiro[3.3]heptan-6-yl]methyl]benzonitrile], 13.9 nM. In turn, `O=C(N1CC(c2ccc(-c3ccc(Cl)cc3Cl)cn2)C1)N1CC2(CC(c3ccc(C(F)(F)F)nc3)C2)C1` [Example 537, [3-[5-(2,4-dichlorophenyl)-2-pyridyl]azetidin-1-yl]-[6-[6-(trifluoromethyl)-3-pyridyl]-2-azaspiro[3.3]heptan-2-yl]methanone] came in with an IC50 of 80.3 nM. For `CS(=O)(=O)c1ccc(-c2ccc(C3CN(C(=O)N4CC5(CC(c6ccc(C(F)(F)F)nc6)C5)C4)C3)cn2)c(Cl)c1` [Example 538, [3-[6-(2-chloro-4-methylsulfonyl-phenyl)-3-pyridyl]azetidin-1-yl]-[6-[6-(trifluoromethyl)-3-pyridyl]-2-azaspiro[3.3]heptan-2-yl]methanone], the IC50 stood at 381 nM. On to `O=C(N1CC(c2ccc(-c3ccc(Cl)cc3F)cn2)C1)N1CC2(CC(c3ccc(C(F)(F)F)nc3)C2)C1` [Example 539, [3-[5-(4-chloro-2-fluoro-phenyl)-2-pyridyl]azetidin-1-yl]-[6-[6-(trifluoromethyl)-3-pyridyl]-2-azaspiro[3.3]heptan-2-yl]methanone], for which the IC50 worked out at 176 nM. In the case of `CC(C)(C)c1nc(-c2ccc(C(=O)N3CC4(CC(n5cc(C#N)cn5)C4)C3)cc2)no1` [compound 21, 1-[2-[4-(5-tert-butyl-1,2,4-oxadiazol-3-yl)benzoyl]-2-azaspiro[3.3]heptan-6-yl]pyrazole-4-carbonitrile], half-maximal inhibition (IC50) was put at 3370 nM. Under `O=C(N1CC2(CC(n3cnc(C4CC4)n3)C2)C1)C12CCC(COCC3(C(F)(F)F)CC3)(CC1)C2` [compound 161, [6-(3-cyclopropyl-1,2,4-triazol-1-yl)-2-azaspiro[3.3]heptan-2-yl]-[4-[[1-(trifluoromethyl)cyclopropyl]methoxymethyl]norbornan-1-yl]methanone] stands 184 nM; under `O=C(C1CC(OCC2(C(F)(F)F)CC2)C1)N1CC2(CC(n3cnc(C4CC4)n3)C2)C1` (stereo not drawn) [compound 176, [6-(3-cyclopropyl-1,2,4-triazol-1-yl)-2-azaspiro[3.3]heptan-2-yl]-[3-[[1-(trifluoromethyl)cyclopropyl]methoxy]cyclobutyl]methanone], 1440 nM.
